Values of other authors, collected in publication PMC11768433 (Viruses, 2024).
Read-outs that look alike come from different tables or passages of the source.

Assays:
[1] = test system: Vero cells; design: method as in Ref.18572274; conditions: up to 500 μM, ref Ref.18572274
[2] = test system: HSV-1; design: method as in Ref.35216177; conditions: HSV-1 replication, Vero cells; ref Ref.35216177
[3] = test system: SARS-CoV-2; design: method as in Ref.35216177; conditions: SARS-CoV-2 replication, Vero cells; ref Ref.35216177
[4] = test system: influenza virus(H1N1,VR-1894); design: method as in Ref.35216177; conditions: influenza H1N1 VR-1894 replication, MDKC cells; ref Ref.35216177
[5] = test system: Vero cells; design: method as in Ref.35216177; conditions: ref Ref.35216177
[6] = test system: HSV-2; design: method as in Ref.35216177; conditions: HSV-2 replication, Vero cells; ref Ref.35216177
[7] = test system: HCoV-229E; design: method as in Ref.35216177; conditions: HCoV-229E replication, Vero cells; ref Ref.35216177
[8] = test system: HCoV-OC43; design: method as in Ref.35216177; conditions: HCoV-OC43 replication, Vero cells; ref Ref.35216177
[9] = test system: Human endocervical cells End1/E6E7; design: method as in Ref.26026377; conditions: ref Ref.26026377
[10] = test system: TZM-bl cell; design: method as in Ref.30089693; conditions: ref Ref.30089693
[11] = test system: MT-4 cell; design: method as in Ref.30089693; conditions: ref Ref.30089693
[12] = test system: PBMC
[13] = test system: H9 cells; design: method as in Ref.12480936; conditions: up to 50 μM, ref Ref.12480936
[14] = test system: P4-CCR5 cells; design: method as in Ref.17448989; conditions: up to 1000 µM, ref Ref.17448989
[15] = test system: P4 cells; design: method as in Ref.12054767; conditions: MTT assay, peptide concentrations higher than 100 μM, ref Ref.12054767
[16] = test system: Feline immunodeficiency virus (FIV); conditions: FIV replication, CrFK cells, at 16 µg/ml; ref Ref.8661378
[17] = test system: Human parainfluenza viruse 3(HPIV 3); design: method as in Ref.28344321; conditions: HPIV 3 infection, Vero cells; ref Ref.28344321
[18] = test system: Vero cells; design: method as in Ref.28344321; conditions: ref Ref.28344321

AAHLIDALYAEFLGGRVLTTPVVHRALFYASAVLRQPFLAGVPSA [DRAVPe01422]
cytotoxicity [1]: [Ref.18572274]No cytotoxicity against Vero cells up to 500 μM.

CFVPWFSKFlXRIL [DRAVPe00391, DRAVP database entry, TL peptide]
IC90 [2]: 2.19 µM | IC90 [3]: 1.89 µM | IC90 [4]: 5.89 µM | CC50 [5]: [Ref.35216177]Vero cells:CC50>100.00 μM

CGGFVPWFSKFlXRIL [DRAVPe00392, DRAVP database entry, TL peptide]
IC90 [2]: 8.21 µM | IC90 [3]: 10.2 µM | IC90 [4]: 9.9 µM | CC50 [5]: [Ref.35216177]Vero cells:CC50>100.00 μM

FVPWFSKFlGRIL [DRAVPe00377, DRAVP database entry, TL peptide]
IC90 [2]: 18.7 µM | IC90 [6]: 16.7 µM | IC90 [3]: 12.1 µM | IC90 [7]: 30.1 µM | IC90 [8]: 15 µM | CC50 [5]: 42.18 µM

FVPWFSKFlPRIL [DRAVPe00378, DRAVP database entry, TL peptide]
IC90 [2]: 18.8 µM | IC90 [6]: 19.2 µM | IC90 [3]: 14 µM | IC90 [8]: 24.1 µM | CC50 [5]: 56.52 µM

FVPWFSKFlWRIL [DRAVPe00385, DRAVP database entry, TL peptide]
IC90 [2]: 8.25 µM | IC90 [6]: 12.5 µM | IC90 [3]: 27.7 µM | IC90 [7]: 50 µM | IC90 [8]: 24.2 µM | CC50 [5]: 35.47 µM

FVPWFSKFlXRIL [DRAVPe00380, DRAVP database entry, TL peptide]
IC90 [2]: 15.9 µM | IC90 [6]: 19 µM | IC90 [3]: 25 µM | IC90 [7]: > 50 µM | IC90 [8]: 27.7 µM | CC50 [5]: 60.90 µM

FVPWFSKFlXRIL [DRAVPe00396, DRAVP database entry, TL peptide]
IC90 [2]: 4.96 µM | IC90 [3]: 6.96 µM | IC90 [4]: 7.11 µM | CC50 [5]: [Ref.35216177]Vero cells:CC50>100.00 μM

FVPWFSKFlXRILC [DRAVPe00389, DRAVP database entry, TL peptide]
IC90 [2]: 11.1 µM | IC90 [3]: 12 µM | IC90 [4]: 10 µM | CC50 [5]: [Ref.35216177]Vero cells:CC50>100.00 μM

FVPWFSKFlXRILGGC [DRAVPe00390, DRAVP database entry, TL peptide]
IC90 [2]: 48 µM | IC90 [3]: 50 µM | IC90 [4]: 49.9 µM | CC50 [5]: [Ref.35216177]Vero cells:CC50>100.00 μM

FVPWFSKFlpRIL [DRAVPe00379, DRAVP database entry, TL peptide]
CC50 [5]: [Ref.35216177]Vero cells:CC50>100 μM

FVPWFSKFlwRIL [DRAVPe00386, DRAVP database entry, TL peptide]
IC90 [2]: 7.89 µM | IC90 [6]: 9.76 µM | IC90 [3]: 14.8 µM | IC90 [7]: 50 µM | IC90 [8]: 17.4 µM | CC50 [5]: 24.12 µM

FVPWFSKFlxRIL [DRAVPe00382, DRAVP database entry, TL peptide]
IC90 [2]: 12.8 µM | IC90 [6]: 11.9 µM | IC90 [3]: 17.4 µM | IC90 [7]: > 50 µM | IC90 [8]: 24.7 µM | CC50 [5]: 32.16 µM

FVQWFSKFLGRIL [DRAVPe00376, DRAVP database entry, TL peptide]
IC90 [2]: 15.7 µM | IC90 [6]: 16 µM | CC50 [5]: 19.61 µM

GLFKVLGSVAKHLLPHVAPVIAEKL [DRAVPe00356, DRAVP database peptide, target HIV]
concentration at 50% cell death [9]: 12.5 µM

GLFSVLGAVAKHVLPHVVPVIAEKL [DRAVPe00355, DRAVP database peptide, target HIV]
concentration at 50% cell death [9]: 10 µM

GLLSVLGSVVKHVIPHVVPVIAEHL [DRAVPe00360, DRAVP database peptide, target HIV]
concentration at 50% cell death [9]: 12.5 µM

IEELIKKSEEQQKKNEEELKKLEX [DRAVPe00656]
CC50 [10]: 193.63 µM | CC50 [11]: 164.47 µM | CC50 ([12]; PBMC, ref Ref.30089693): 46.43 µM

IEELLKKAEEQQKKNEEELKKLEX [DRAVPe00660]
CC50 [10]: 256.23 µM | CC50 ([12]; PBMC, ref Ref.30089693): 49.95 ± 2.97 µM

KPKQIKPPLPSV [DRAVPe00130, DRAVP database peptide, target HIV-1 Vif proteins]
cytotoxicity [13]: [Ref.12480936]No significant cytotoxicity on H9 cells up to 50 μM.

KVINPEPIVEPFMSKPFALF [DRAVPe00230]
cytotoxicity [14]: [Ref.17448989]No cytotoxicity against P4-CCR5 cells up tp 1000 µM.

LEAIPCSIPPCFAFNKPFVF [DRAVPe00222]
cytotoxicity [14]: [Ref.17448989]No cytotoxicity against P4-CCR5 cells up tp 1000 µM.

LEAIPCSIPPCVFFNKPFVF [DRAVPe00221]
cytotoxicity [14]: [Ref.17448989]No cytotoxicity against P4-CCR5 cells up tp 1000 µM.

LEAIPCSIPpCFLFNKPFVF [DRAVPe00227]
cytotoxicity [14]: [Ref.17448989]No cytotoxicity against P4-CCR5 cells up tp 1000 µM.

LEAIPMGIPpEVXFNKPFVF [DRAVPe00228]
cytotoxicity [14]: [Ref.17448989]No cytotoxicity against P4-CCR5 cells up tp 1000 µM.

LEAIPMSIPPEFLFGKPFVF [DRAVPe00223]
cytotoxicity [14]: [Ref.17448989]No cytotoxicity against P4-CCR5 cells up tp 1000 µM.

LEAIPMSIPPEVKFNKPFVF [DRAVPe00192]
cytotoxicity [14]: [Ref.17448989]No cytotoxicity against P4-CCR5 cells up tp 1000 µM.

LEANIEELLKKAEEQQKKNEEELKKLEX [DRAVPe00784]
CC50 [10]: 434.03 µM | CC50 ([12]; PBMC, ref Ref.30089693): 46.83 µM

LFYLVPGPGH [DRAVPe00094, DRAVP database peptide, target HIV-1 integrase]
decrease of cell viability [15]: ~5%

LKAKTNISIREGPTLGNWAR [DRAVPe00841, DRAVP database peptide, target FIV]
inhibition [16]: 24%

LPLPAPSFHRTT [DRAVPe00128, DRAVP database peptide, target HIV-1 Vif proteins]
cytotoxicity [13]: [Ref.12480936]No significant cytotoxicity on H9 cells up to 50 μM.

LSELDDRADALQAGASQFETSAAKLKRKYWWKN [DRAVPe00111, DRAVP database peptide, target HIV-1 integrase]
decrease of cell viability [15]: ~5%

PACQDFLGAMIHLKAKTNISIR [DRAVPe00840, DRAVP database peptide, target FIV]
inhibition [16]: 28%

QLLIRMIYKNI [DRAVPe00109, DRAVP database peptide, target HIV-1 integrase]
decrease of cell viability [15]: ~5%

QLLIRMIYKNILFYLVPGPGHGAEPERRNIKYL [DRAVPe00090, DRAVP database peptide, target HIV-1 integrase]
decrease of cell viability [15]: ~5%

SNQGGSPLPRSV [DRAVPe00127, DRAVP database peptide, target HIV-1 Vif proteins]
cytotoxicity [13]: [Ref.12480936]No significant cytotoxicity on H9 cells up to 50 μM.

VALDPIDIAnti-SIVLNKAKSDLEESKEWIRRSNGKLDSIGSGSGC [DRAVPe01791]
IC90 [17]: 0.28 ± 0.247 µM | CC50 [18]: [Ref.28344321]Vero cells: CC50>10000 nM.

VALDPIDIAnti-SIVLNKAKSDLEESKEWIRRSNGKLDSIGSGSGX [DRAVPe01793]
IC90 [17]: 0.0007 ± 7e-06 µM | CC50 [18]: 4.5 µM

WEQKIEELLKKAEEQQKKNEEELKKLEX [DRAVPe00785]
CC50 [10]: 112.9 µM | CC50 ([12]; PBMC, ref Ref.30089693): 114.8 µM

XGSGSGVALDPIDIAnti-SIVLNKAKSDLEESKEWIRRSNGKLDSI [DRAVPe01796]
IC90 [17]: 0.0001 ± 1e-07 µM | CC50 [18]: [Ref.28344321]Vero cells: CC50>10000 nM.

YLDRVDTWLQGKINISLCLT [DRAVPe00846, DRAVP database peptide, target FIV]
inhibition [16]: 9%

YQALIRMIYKNI [DRAVPe00097, DRAVP database peptide, target HIV-1 integrase]
decrease of cell viability [15]: ~5%

YQLAIRMIYKNI [DRAVPe00098, DRAVP database peptide, target HIV-1 integrase]
decrease of cell viability [15]: ~5%

YQLLIRMIYANI [DRAVPe00104, DRAVP database peptide, target HIV-1 integrase]
decrease of cell viability [15]: ~5%

YQLLIRPIYKNI [DRAVPe00110, DRAVP database peptide, target HIV-1 integrase]
decrease of cell viability [15]: ~5%

YTSLIEELIKKSEEQQKKNEEELKKLEX [DRAVPe00783]
CC50 [10]: 106.4 µM | CC50 [11]: 138.37 µM | CC50 [12]: 40.01 µM

YTSLIHSLIEESQNQQEKNEQELLELDX [DRAVPe00782]
CC50 [10]: 800.8 µM | CC50 [11]: 366.3 µM | CC50 ([12]; PBMC, ref Ref.30089693): 212.6 µM
